Test results published in PubChem BioAssay (NCI).
Values joined by “and” are separate entries in the source; they are usually repeats but may differ in a detail not shown here. Equal values may be shown once.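 Dose response: 5 concentrations. Exposure: 48 h. Format: 96-well plates. Endpoint: linear interpolation; highest concentration if not reached. Here, GI50 denotes the concentration required for 50% inhibition of growth. TGI marks complete inhibition of growth.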

Experiments:
Test in all cases: NCI anticancer screen, dose series, 48 h
SK-MEL-2 melanoma = test system: SK-MEL-2 melanoma
MALME-3M melanoma = test system: MALME-3M melanoma
SK-MEL-5 melanoma = test system: SK-MEL-5 melanoma
EKVX NSCLC = test system: EKVX NSCLC
MDA-N = test system: MDA-N
786-0 renal = test system: 786-0 renal
LOX IMVI melanoma = test system: LOX IMVI melanoma
UACC-257 melanoma = test system: UACC-257 melanoma
HT29 colon = test system: HT29 colon
DLD-1 colon = test system: DLD-1 colon
DMS 114 small cell lung = test system: DMS 114 small cell lung

Cc1[nH]c(C(=O)Nc2ccc(C(=O)NCCN)cc2OC(C)C)c(Cl)c1Cl
GI50 (SK-MEL-2 melanoma): 1.99 µM
TGI (SK-MEL-2 melanoma): 3.76 µM
GI50 (MALME-3M melanoma): 1.46 µM
TGI (MALME-3M melanoma): 3.19 µM
GI50 (SK-MEL-5 melanoma): 1.78 µM
TGI (SK-MEL-5 melanoma): 3.2 µM
GI50 (EKVX NSCLC): 1.62 µM
TGI (EKVX NSCLC): 3.17 µM

c1ccc(/C(=N\Nc2nc3ccccc3[nH]2)c2ccccn2)cc1
TGI (SK-MEL-2 melanoma): 21.4 µM
TGI (MDA-N): 18.4 µM
TGI (786-0 renal): 2.57 µM
TGI (MALME-3M melanoma): 8.31 µM
TGI (LOX IMVI melanoma): 7.44 µM
TGI (SK-MEL-5 melanoma): 4.66 µM
TGI (UACC-257 melanoma): 4.63 µM
TGI (HT29 colon): 2.69 µM
TGI (EKVX NSCLC): 2.96 µM

CC(C)CCN(CCC(C)C)CC(=O)Nc1ccc(S(=O)(=O)c2ccc(NC(=O)CN(CCC(C)C)CCC(C)C)cc2)cc1
GI50 (SK-MEL-2 melanoma): 2.11 µM
TGI (SK-MEL-2 melanoma): 6.14 µM
GI50 (MALME-3M melanoma): 1.57 µM
TGI (MALME-3M melanoma): 3.51 µM
GI50 (SK-MEL-5 melanoma): 1.53 µM
TGI (SK-MEL-5 melanoma): 3.05 µM
GI50 (UACC-257 melanoma): 3.01 µM
TGI (UACC-257 melanoma): 13.6 µM
GI50 (HT29 colon): 1.58 µM
TGI (HT29 colon): 3.29 µM
GI50 (EKVX NSCLC): 3.27 µM
TGI (EKVX NSCLC): 18.8 µM

C[N+]1(C(CO)Cc2c[nH]c3ccccc23)Cc2ccccc2C1 (configuration not stated)
TGI (SK-MEL-2 melanoma): > 100 µM
TGI (MDA-N): > 100 µM
TGI (786-0 renal): > 100 µM
TGI (MALME-3M melanoma): 81 µM
TGI (LOX IMVI melanoma): > 100 µM
TGI (SK-MEL-5 melanoma): > 100 µM
TGI (UACC-257 melanoma): > 100 µM
TGI (HT29 colon): > 100 µM
TGI (EKVX NSCLC): > 100 µM

C[n+]1c2ccccc2c(N=[N+]=[N-])c2ccccc21
TGI (SK-MEL-2 melanoma): > 10 µM
TGI (786-0 renal): > 10 µM
TGI (MALME-3M melanoma): > 10 µM
TGI (LOX IMVI melanoma): 7.63 µM
TGI (SK-MEL-5 melanoma): > 10 µM
TGI (UACC-257 melanoma): > 10 µM
TGI (HT29 colon): > 10 µM
TGI (EKVX NSCLC): > 10 µM

C=C(CN(C)C)C(=O)c1ccccc1OC
TGI (SK-MEL-2 melanoma): 30 µM
TGI (MDA-N): 34 µM
TGI (786-0 renal): 30 µM
TGI (MALME-3M melanoma): 16.5 µM
TGI (LOX IMVI melanoma): 29.3 µM
TGI (SK-MEL-5 melanoma): 31.1 µM
TGI (UACC-257 melanoma): 30 µM
TGI (DLD-1 colon): 14.2 µM
TGI (HT29 colon): 46 µM
TGI (DMS 114 small cell lung): 42.5 µM
TGI (EKVX NSCLC): 48.6 µM

O=C1OC(c2ccc(O)cc2)(c2ccc(O)cc2)c2ccc(Cl)c3cccc1c23 (tested in a mixture with another compound)
TGI (SK-MEL-2 melanoma): 31.6 µM
TGI (MDA-N): 25.7 µM
TGI (MALME-3M melanoma): 29.1 µM
TGI (LOX IMVI melanoma): 20.8 µM
TGI (SK-MEL-5 melanoma): 29.3 µM
TGI (UACC-257 melanoma): 70.1 µM
TGI (HT29 colon): 23.9 µM
TGI (EKVX NSCLC): 4.88 µM

O=C1Nc2cccc(Cl)c2/C1=C\c1cccnc1
TGI (SK-MEL-2 melanoma): 25.9 µM
TGI (786-0 renal): 20.9 µM
TGI (MALME-3M melanoma): 24 µM
TGI (LOX IMVI melanoma): > 100 µM
TGI (SK-MEL-5 melanoma): 27.4 µM
TGI (UACC-257 melanoma): 16.8 µM
TGI (HT29 colon): > 100 µM
TGI (EKVX NSCLC): 93.1 µM

CCCCCCCCCCCCc1ccc(S(=O)(=O)O)cc1.[Cu+2]
TGI (MDA-N): > 100 µM
TGI (786-0 renal): > 100 µM
TGI (MALME-3M melanoma): > 100 µM
TGI (LOX IMVI melanoma): > 100 µM
TGI (SK-MEL-5 melanoma): > 100 µM
TGI (UACC-257 melanoma): > 100 µM
TGI (HT29 colon): > 100 µM
TGI (EKVX NSCLC): > 100 µM

COc1ccccc1C#C/C=C\C#Cc1ccccc1C#N
TGI (SK-MEL-2 melanoma): 51.8 µM
TGI (786-0 renal): 81.8 µM
TGI (MALME-3M melanoma): 47.7 µM
TGI (SK-MEL-5 melanoma): 5.95 µM
TGI (UACC-257 melanoma): 94.6 µM
TGI (HT29 colon): > 100 µM
TGI (EKVX NSCLC): 58.7 µM

CC(=O)OC(C(=O)O)C(OC(C)=O)C(OC(C)=O)C(OC(C)=O)C(=O)O (configuration not stated)
TGI (SK-MEL-2 melanoma): > 100 µM
TGI (MDA-N): > 100 µM
TGI (MALME-3M melanoma): > 100 µM
TGI (LOX IMVI melanoma): > 100 µM
TGI (SK-MEL-5 melanoma): > 100 µM
TGI (UACC-257 melanoma): > 100 µM
TGI (HT29 colon): > 100 µM
TGI (EKVX NSCLC): > 100 µM

O=C(CSCC(=O)N/N=C\c1ccc(F)cc1F)N/N=C\c1ccc(F)cc1F
TGI (SK-MEL-2 melanoma): > 100 µM
TGI (786-0 renal): > 100 µM
TGI (MALME-3M melanoma): > 100 µM
TGI (LOX IMVI melanoma): > 100 µM
TGI (SK-MEL-5 melanoma): > 100 µM
TGI (UACC-257 melanoma): > 100 µM
TGI (HT29 colon): > 100 µM
TGI (EKVX NSCLC): > 100 µM

CC(C)CNC1=NCC(C)S1 (configuration not stated)
TGI (SK-MEL-2 melanoma): > 100 µM
TGI (MDA-N): > 100 µM
TGI (MALME-3M melanoma): > 100 µM
TGI (LOX IMVI melanoma): > 100 µM
TGI (SK-MEL-5 melanoma): > 100 µM
TGI (UACC-257 melanoma): > 100 µM
TGI (HT29 colon): > 100 µM
TGI (EKVX NSCLC): > 100 µM

COC(=O)c1c(O)ccc2c1c1c(n2CCc2ccc(OC)c(OC)c2)C(=O)c2ccccc2C1=O
TGI (SK-MEL-2 melanoma): 32.8 µM
TGI (MDA-N): 25.5 µM
TGI (786-0 renal): 32 µM
TGI (MALME-3M melanoma): 29.2 µM
TGI (SK-MEL-5 melanoma): 23.9 µM
TGI (UACC-257 melanoma): 35.8 µM
TGI (HT29 colon): 10.5 µM
TGI (EKVX NSCLC): 40.8 µM

CC[C@@]1(O)CC(OC2CC(N3CCOCC3)C(O)C(C)O2)c2c(O)c3c(c(O)c2[C@H]1O)C(=O)c1cccc(O)c1C3=O (some centres not stated)
TGI (SK-MEL-2 melanoma): 0.959 µM and 1.5 µM
TGI (MDA-N): 1.04 µM
TGI (786-0 renal): 2.18 µM
GI50 (MALME-3M melanoma): 0.034 µM
TGI (MALME-3M melanoma): 0.258 µM and 0.339 µM
GI50 (LOX IMVI melanoma): 0.0207 µM
TGI (LOX IMVI melanoma): 0.886 µM and 0.437 µM
GI50 (SK-MEL-5 melanoma): 0.0175 µM
TGI (SK-MEL-5 melanoma): 0.451 µM and 0.181 µM
GI50 (UACC-257 melanoma): 0.108 µM
TGI (UACC-257 melanoma): 1.34 µM and 0.69 µM
GI50 (DLD-1 colon): 0.0324 µM
TGI (DLD-1 colon): 2.78 µM and 3.2 µM
GI50 (HT29 colon): 0.0228 µM
TGI (HT29 colon): 3.23 µM and 2.33 µM
GI50 (DMS 114 small cell lung): 0.0525 µM
TGI (DMS 114 small cell lung): 0.968 µM and 1.08 µM
GI50 (EKVX NSCLC): 0.241 µM
TGI (EKVX NSCLC): 1.02 µM and 1.63 µM

O=C(O)c1cc2ccccc2c(N=Nc2ccc(S(=O)(=O)Nc3ccccn3)cc2)c1O
TGI (SK-MEL-2 melanoma): > 100 µM
TGI (MDA-N): > 100 µM
TGI (786-0 renal): > 100 µM
TGI (MALME-3M melanoma): > 100 µM
TGI (SK-MEL-5 melanoma): > 100 µM
TGI (UACC-257 melanoma): > 100 µM
TGI (HT29 colon): > 100 µM
TGI (EKVX NSCLC): > 100 µM
